According to ChEMBL document CHEMBL4610094, “Prenylated Phenolic Compounds from the Aerial Parts of Glycyrrhiza uralensis as PTP1B and α-Glucosidase Inhibitors” (J Nat Prod, 2020):

Columns and labels:
[1] = molecular target: T1, Tyrosine-protein phosphatase non-receptor type 1 (Homo sapiens, UniProt P18031); test: Inhibition of recombinant human PTP1B (1 to 321 residues) expressed in Escherichia coli using p-nitrophenyl phosphate as substrate incubated for 30 mins
T1 sequence (P18031 whole entry): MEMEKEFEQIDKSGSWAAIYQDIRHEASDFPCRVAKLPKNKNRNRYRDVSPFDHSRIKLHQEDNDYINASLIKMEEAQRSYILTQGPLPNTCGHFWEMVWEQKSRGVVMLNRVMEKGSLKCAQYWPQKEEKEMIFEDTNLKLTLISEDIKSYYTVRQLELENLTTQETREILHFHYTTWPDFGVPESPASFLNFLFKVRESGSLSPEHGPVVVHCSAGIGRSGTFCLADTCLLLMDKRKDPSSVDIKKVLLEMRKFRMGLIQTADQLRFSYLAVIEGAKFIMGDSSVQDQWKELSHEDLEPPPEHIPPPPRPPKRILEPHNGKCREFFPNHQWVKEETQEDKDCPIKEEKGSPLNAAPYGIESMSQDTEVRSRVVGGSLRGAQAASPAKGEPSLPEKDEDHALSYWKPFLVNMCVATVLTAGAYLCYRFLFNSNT

[2] = molecular target: T2, Tyrosine-protein phosphatase non-receptor type 1 (Homo sapiens) (UniProt P18031); test: Inhibition of recombinant human PTP1B (1 to 321 residues) expressed in Escherichia coli at 10 uM using p-nitrophenyl phosphate as substrate incubated for 30 mins relative to control
T2 sequence (whole entry): T1 sequence (P18031 whole entry)

Homo sapiens = species: Homo sapiens; test: Inhibition of alpha-Glucosidase (unknown origin) at 10 uM using pNPG as substrate incubated for 30 mins relative to control
[3] = Cytotoxicity against human insulin resistant HepG2 cells assessed as cell viability at 10 uM by CCK8 assay relative to control; format: cell-based; conditions: read-out: Activity
HepG2 = test: Induction of glucose uptake in human insulin resistant HepG2 cells at 10 uM incubated for 24 hrs by GOD-POD method relative to control; format: functional
[4] = Inhibition of alpha-Glucosidase (unknown origin) using pNPG as substrate incubated for 30 mins; set-up: species or system Homo sapiens

SMILES	IC50 [1]	inhibition [2]	inhibition (Homo sapiens)	viability at 10 µM [3]	Activity (HepG2)	IC50 [4]
COc1cc2occ(-c3ccc(O)cc3O)c(=O)c2c(O)c1CC=C(C)C	5.3 µM					
COc1c(CC=C(C)C)c(O)cc2c1[C@@H]1Oc3cc(O)c(CC=C(C)C)cc3[C@@H]1CO2	4.4 µM					
COc1ccc([C@@H]2COc3cc(O)c(CC=C(C)C)cc3C2)c(O)c1		> 60%	> 40%	80 to 110%		
CC1(C)C=Cc2cc(/C=C/C(=O)c3ccc(O)cc3O)ccc2O1		> 60%	> 40%	80 to 110%		
COc1c(CC=C(C)C)c(O)cc2c1C[C@H](c1ccc(O)c(CC=C(C)C)c1O)CO2 [LICORICIDIN]	5.9 µM					
COc1cc2c(c(O)c1CC=C(C)C)C(=O)C(c1ccc(O)cc1O)CO2 (stereo unspecified)		> 60%	> 40%	80 to 110%	>80%	
O=c1c(-c2ccc(O)cc2)coc2cc(O)cc(O)c12 [GENISTEIN]		> 60%	58.4%	80 to 110%		
COc1c(CC=C(C)C)c(O)cc2oc(-c3ccc(O)cc3O)cc12 [LICOCOUMARONE]		> 60%	61.2%	80 to 110%	>80%	
COc1cc2oc(-c3ccc(O)cc3O)cc2c(OC)c1CC=C(C)C	3.3 µM	> 60%	> 40%	80 to 110%		
COc1ccc(-c2coc3cc(O)cc(O)c3c2=O)cc1 [BIOCHANIN]		> 60%	> 40%	80 to 110%		3.8 µM
COc1cc(O)c2c(=O)c(OC)c(-c3ccc(O)cc3)oc2c1 [KUMATAKENIN]		> 60%	> 40%	80 to 110%		
CC1(C)C=Cc2c(ccc([C@@H]3COc4cc(O)cc(O)c4C3=O)c2O)O1		> 60%	> 40%	80 to 110%		
CC1(C)C=Cc2cc(-c3coc4cc(O)cc(O)c4c3=O)cc(O)c2O1		> 60%	> 40%	80 to 110%		
CC(C)=CCc1c(O)ccc([C@@]2(O)COc3cc(O)c(CC=C(C)C)c(O)c3C2=O)c1O		> 60%	> 40%	80 to 110%		
CC(C)=CCc1c(O)ccc(-c2cc3ccc(O)cc3o2)c1O [2'-O-DEMETHYLBIDWILLOL B]	9.2 µM	> 60%	61.7%	80 to 110%		8.6 µM
COc1c(CC=C(C)C)c(O)cc2oc(=O)c(-c3ccc(O)cc3O)cc12 [GLYCYCOUMARIN]		> 60%	> 40%	80 to 110%		0.1 µM
COc1cc2c(c(OC)c1CC=C(C)C)C[C@H](c1ccc(O)c3c1OC(C)(C)C=C3)CO2	7.2 µM					
COc1cc2c(c(OC)c1CC=C(C)C)C[C@H](c1ccc(O)c(CC=C(C)C)c1O)CO2		> 60%	> 40%	80 to 110%		
COc1c(-c2ccc(O)cc2)oc2cc(O)c(CC=C(C)C)c(O)c2c1=O	4.5 µM					
CC1(C)C=Cc2cc(-c3coc4cc(O)cc(O)c4c3=O)ccc2O1		> 60%	> 40%	80 to 110%		
COc1c(CC=C(C)C)c(O)cc2c1[C@@H]1Oc3cc4c(cc3[C@@H]1CO2)C=CC(C)(C)O4	4.8 µM	> 60%	> 40%	80 to 110%		
CC(C)=CCc1cc([C@@H]2CC(=O)c3c(O)cc(O)c(CC=C(C)C)c3O2)ccc1O [LESPEDEZAFLAVANONE B]	2.1 µM	> 60%	> 40%	80 to 110%		
CC(C)=CCc1c(O)ccc(-c2coc3cc(O)cc(O)c3c2=O)c1O		> 60%	20.1%	80 to 110%		

SMILES	IC50 [1]	inhibition [2]	inhibition (Homo sapiens)	viability at 10 µM [3]	Activity (HepG2)	IC50 [4]
Oc1ccc2c(c1)OC[C@@H](c1cc3c(cc1O)OCO3)C2						3.8 µM
CC(C)=CCc1c(O)ccc(-c2coc3cc(O)c(CC=C(C)C)c(O)c3c2=O)c1O	7.5 µM	> 60%	> 40%	80 to 110%		
CC(C)=CCc1cc([C@@H]2COc3cc(O)c(CC=C(C)C)c(O)c3C2=O)ccc1O			> 40%			
CC(C)=CCc1cc(-c2oc3cc(O)c(CC=C(C)C)c(O)c3c(=O)c2O)ccc1O						3.2 µM
O=C(/C=C/c1ccc(O)cc1)c1ccc(O)cc1O [ISOLIQUIRITIGENIN]		> 60%	> 40%	80 to 110%		5.6 µM
C=C(C)[C@@H](O)Cc1c(O)ccc([C@@H]2COc3cc(OC)c(CC=C(C)C)c(OC)c3C2)c1O	6.7 µM	> 60%	> 40%	80 to 110%		
COc1ccc([C@@H]2COc3cc(O)ccc3C2)c(O)c1		> 60%	> 40%	80 to 110%		
COc1cc2oc(=O)c3c4ccc(O)cc4oc3c2c(OC)c1CC=C(C)C		> 60%	> 40%	80 to 110%		
CC(C)=CCc1c(O)c(CC=C(C)C)c2occ(-c3ccc(O)cc3)c(=O)c2c1O	2.3 µM					16.3 µM
CC(C)=CCc1cc([C@@H]2CC(=O)c3c(O)cc(O)cc3O2)ccc1O		> 60%	> 40%	80 to 110%		
CC(C)=CCc1c(O)cc2c(c1O)C(=O)[C@@](O)(c1ccc(O)c3c1OC(C)(C)C=C3)CO2	5.9 µM	> 60%	> 40%	80 to 110%		20.1 µM
COc1cc2c(c(OC)c1CC=C(C)C)C[C@H](c1ccc(O)cc1O)CO2 [GLYASPERIN D]		> 60%	> 40%	80 to 110%		
CC(C)=CCc1cc(-c2coc3cc(O)c(CC=C(C)C)c(O)c3c2=O)cc(O)c1O	7.7 µM					
CC(C)=CCc1c(O)cc2oc(-c3ccc(O)cc3)c(O)c(=O)c2c1O [LICOFLAVONOL]		> 60%	> 40%	80 to 110%		
CC(C)=CCc1c(O)ccc(-c2coc3c(CC=C(C)C)c(O)cc(O)c3c2=O)c1O	7 µM					
COc1cc(O)ccc1-c1cc2c(OC)c(CC=C(C)C)c(O)cc2o1	5.3 µM	> 60%	> 40%	80 to 110%		
CC(C)=CCc1c(O)ccc(C2COc3cc(O)c(CC=C(C)C)c(O)c3C2=O)c1O (stereo unspecified)		> 60%	> 40%	80 to 110%		
COc1ccc(C2COc3c(CC=C(C)C)c(O)cc(O)c3C2=O)c(O)c1 (stereo unspecified)		> 60%	> 40%	80 to 110%		
C[C@H]1O[C@H](O[C@H]2[C@H](O)[C@@H](O)[C@@H](O[C@H]3[C@H](O)[C@@H](O)C(O)O[C@@H]3CO)O[C@@H]2CO)[C@H](O)[C@@H](O)[C@@H]1N[C@H]1C=C(CO)[C@@H](O)[C@H](O)[C@H]1O (stereo partly specified) [ACARBOSE]						166 µM
COc1cc(O)ccc1/C=C/C(=O)c1ccc(O)cc1 [ECHINATIN]		> 60%	> 40%	80 to 110%		
COc1cc2c(c(O)c1CC=C(C)C)C(=O)C(c1ccc(O)c(CC=C(C)C)c1O)CO2 (stereo unspecified)	4.3 µM	> 60%	> 40%	80 to 110%		
CC(C)=CCc1cc(-c2coc3cc(O)cc(O)c3c2=O)ccc1O			34.2%			
